{
  "source": "patent US20260124181A1",
  "about": "“AGENT FOR REDUCING BLOOD MYOSTATIN LEVEL” (KOWA COMPANY, LTD., priority 2022, published 2026)",
  "tested_on": "blood myostatin",
  "experiment": "Effect of compound A on blood myostatin in NAFLD patients, oral administration for 72 weeks versus placebo",
  "format": "in vivo, human",
  "conditions": "0.4 mg per day oral (0.2-mg tablet twice a day)",
  "method": "An effect on blood myostatin at the time of the oral administration of 0.4 mg per day of the compound A (a 0.2-mg tablet of the compound A was administered twice a day at the time of fasting) to a patient of a nonalcoholic fatty liver disease (NAFLD) for 72 weeks was investigated by comparison to the administration of a placebo. […] It was clear from FIG. 1 that the administration of the compound A reduced the fasting blood myostatin concentration at 12 weeks and 72 weeks from the administration in a stepwise manner as compared to the placebo administration.",
  "data": [
    {"molecule": "CC[C@@H](Oc1cccc(CN(CCCOc2ccc(OC)cc2)c2nc3ccccc3o2)c1)C(=O)O", "note": "[Compound A, (R)-2-[3-[[N-(benzoxazol-2-yl)-N-3-(4-methoxyphenoxy)propyl]aminomethyl]phenoxy]butyric acid]", "values": [
      {"measurement": "fasting blood myostatin concentration, change from baseline as compared to placebo", "setting": "12 weeks after start of administration", "result": "reduced"},
      {"measurement": "fasting blood myostatin concentration, change from baseline as compared to placebo", "setting": "72 weeks after start of administration", "result": "reduced"}
    ]}
  ]
}
